System: C-RAF-mediated ERK activation in B-RAF^WT IPC-298 cells (NRAS^Q61L)
Assay: IPC-298 AlphaScreen SureFire pERK1/2 cellular assay
Type: cell-based, human
Settings: 1 hour treatment, in comparison to Dabrafenib
Protocol: On day 2, compounds at a concentration of 6 mM are serially diluted 5 μl into 45 μl of 100% dimethyl sulfoxide (DMSO) six times in 96-well plates for a total of 7 dilution points. […] The cells are treated for 1 hour at 37° C. in 5% CO2. The treatment is then removed and the cells are incubated with lysis buffer containing phosphatase inhibitors for 10 minutes at room temperature with gentle shaking. […] The biotinylated antibody binds to the streptavidin-coated donor beads and the phopsho-ERK1/2 antibody binds to the acceptor beads. Plates are read on an EnVision reader (Perkin Elmer) and excitation of the beads at 680 nm with a laser induces the release of singlet oxygen molecules from the donor beads that triggers energy transfer to the acceptor beads in close proximity, producing a signal that can be measured at 570 nm. Both antibodies bind to phosphorylated ERK proteins, bringing the donor and acceptor beads into close proximity.
All data are analysed using the GraphPad Prism software package. Activation of ERK phosphorylation is expressed as a percentage of activation relative to the reference compound, Dabrafenib.

| SMILES | paradoxical activation of MAPK pathway (ERK phosphorylation) relative to Dabrafenib |
| --- | --- |
| O=C1CCc2c(Oc3ccc4c(c3)CC(c3nc(-c5ccncc5)c[nH]3)CO4)ccnc2N1 (stereo not drawn) [Example 4, 5-[3-[4-(4-pyridyl)-1H-imidazol-2-yl]chroman-6-yl]oxy-3,4-dihydro-1H-1,8-naphthyridin-2-one] | reduced paradoxical activity |
| O=C1CCc2c(Oc3ccc4c(c3)CC(c3nc(-c5ccsc5)c[nH]3)CO4)ccnc2N1 (stereo not drawn) [Example 6, 5-[3-[4-(3-thienyl)-1H-imidazol-2-yl]chroman-6-yl]oxy-3,4-dihydro-1H-1,8-naphthyridin-2-one] | reduced paradoxical activity |
| O=C1CCc2c(Oc3ccc4c(c3)CC(c3nc(-c5cccs5)c[nH]3)CO4)ccnc2N1 (stereo not drawn) [Example 7, 5-[3-[4-(2-thienyl)-1H-imidazol-2-yl]chroman-6-yl]oxy-3,4-dihydro-1H-1,8-naphthyridin-2-one] | reduced paradoxical activity |
| O=C1CCc2c(Oc3ccc4c(c3)CC(c3cc(-c5ccccc5)[nH]n3)CO4)ccnc2N1 (stereo not drawn) [Example 18, 5-[3-(5-phenyl-1H-pyrazol-3-yl)chroman-6-yl]oxy-3,4-dihydro-1H-1,8-naphthyridin-2-one] | reduced paradoxical activity |
| O=C1CCc2c(Oc3ccc4c(c3)O[C@@H](c3nc(-c5ccccc5)c[nH]3)CO4)ccnc2N1 [Example 19, 5-[[(3S)-3-(4-phenyl-1H-imidazol-2-yl)-2,3-dihydro-1,4-benzodioxin-6-yl]oxy]-3,4-dihydro-1H-1,8-naphthyridin-2-one] | reduced paradoxical activity |
| O=C1CCc2c(Oc3ccc4c(c3)O[C@H](c3nc(-c5ccccc5)c[nH]3)CO4)ccnc2N1 [Example 20, 5-[[(3R)-3-(4-phenyl-1H-imidazol-2-yl)-2,3-dihydro-1,4-benzodioxin-6-yl]oxy]-3,4-dihydro-1H-1,8-naphthyridin-2-one] | reduced paradoxical activity |

From patent USRE49361E1, “Fused bicyclic (hetero)aromatic compounds useful for the treatment of cancers” (JAZZ PHARMACEUTICALS IRELAND LIMITED, priority 2014, dated 2023)
